Experimental data taken from US4424229A, “Fluorine containing 2,4,5-triphenylimidazoles” (A/S Dumex (Dumex Ltd.), priority 1982, dated 1984).
Read-outs that look alike come from different tables or passages of the source.

How the values were obtained:
[1] = system: acetic acid induced writhing movements; assay: Writhing test in mice (acetic acid); format: in vivo, mice (NMRI/BOM); settings: Mus musculus, po, 20 min, read-out: Analgesic ED50, writhing test
Method: (§1) Tests for analgesic activity
(§2) 1. Writhing test in mice. (SPF females of the strain NMRI/BOM, weighing 20-25 g). The test substance was administered by gavage 1/2 hour prior to an intraperitoneal injection of acetic acid. The number of writhing movements in 20 minutes was counted.

[2] = Tests for analgesic activity (general); format: in vivo, mice; rats; settings: compared with the compounds of the invention, or general
Method: as §1, §2
2. Randall-Selitto test in rats. (SPF males of the strain Sprague-Dawley, weighing 90-100 g). The test was performed on the whole as described by Randall and Selitto: Arch. Int. Pharmacodyn. Ther. 111, 409 (1957). An analgesia-meter of the make Ugo Basile was used and the test substance was administered by gavage 2 hours after injection of a suspension of brewer's yeast into the rat paw.

[3] = in vivo; settings: mouse; for LD50 at 168 h: po, read-out: Acute toxicity LD50
Method: Test for acute toxicity (LD50) in mice
The test substance was administered by gavage.

[4] = target: PG-synthetase; assay: Prostaglandin-synthetase inhibition test (Vane); format: biochemical; settings: AA = arachidonic acid
[5] = system: arachidonic acid induced aggregation of human platelet rich plasma; assay: Platelet aggregation inhibition test (arachidonic acid induced, human platelet rich plasma); format: cell-based; settings: AA = arachidonic acid
Method: Platelet aggregation inhibition test The ability of the test substance to inhibit arachidonic acid induced aggregation of human platelet rich plasma was tested in a HU aggregometer (from H. Upchurch & Co. Ltd.).

[6] = system: arachidonic acid induced bronchoconstrictions; assay: Inhibition of arachidonic acid induced bronchoconstrictions in guinea-pigs; format: in vivo; settings: Cavia porcellus, read-out: Inhibition of arachidonic acid induced bronchoconstrictions ID50
Method: Inhibition of arachidonic acid (AA) induced bronchoconstrictions in guinea-pigs. Test compounds were given intravenously to anaesthetized guinea-pigs 5 min. before intravenous injection of AA (200-500 μg/kg). Bronchial pressure was measured and percent inhibition calculated as compared to the mean of 3 preceding AA-induced control constrictions obtained after injection of vehicle in the same animal.

[7] = system: stomach ulcers; assay: Ulcerogenic activity in rats; format: in vivo, rats (Sprague-Dawley); settings: rats, gavage, 5 hours
Method: (§3) Ulcerogenic activity in rats
(§4) SPF males of the strain Sprague-Dawley weighing 180-250 g were used. 5 hours after administration by gavage of the test substance the rates were killed by an overdose of ether. The stomachs were removed and opened along the greater curvature. The number of ulcers was assessed and compared to control rats.

[8] = system: brewer's yeast injected rat paw; assay: Randall-Selitto test in rats (analgesia-meter, brewer's yeast paw); format: in vivo, rats (Sprague-Dawley); settings: po, gavage 2 hours after brewer's yeast in paw, read-out: Analgesic ED50, analgesia-meter
Method: Tests for analgesic activity 2. Randall-Selitto test in rats. (SPF males of the strain Sprague-Dawley, weighing 90-100 g). The test was performed on the whole as described by Randall and Selitto: Arch. Int. Pharmacodyn. Ther. 111, 409 (1957).

[9] = Ulcerogenic activity in rats; format: in vivo, rats (Sprague-Dawley); settings: rat, in vivo, po
Method: as §3, §4

[10] = system: carrageenin-injected rat paw; assay: Test for antiinflammatory activity in rats (carrageenin paw); format: in vivo, rats (Sprague-Dawley); settings: po, read-out: Antiinflammatory test ED50
Method: Test for antiinflammatory activity in rats SPF males of the strain Sprague-Dawley, weighing~150 g were used. The test was performed according to Winter et al.: Proc. Soc. […] The test substance was given by gavage 1 hour prior to injection of a carrageenin-suspension into the rat paw.

[11] = mice, gavage 1/2 hour before i.p. acetic acid, writhings in 20 minutes
[12] = guinea-pigs, intravenous, 5 min before i.v. AA (200-500 μg/kg)

Row | Compound | ED50 [1, 11] [mg/kg] | Inhibition of PG-synthetase IC50 [4] [μg/10 μg AA] | Inhibition of platelet aggregation IC100 [5] [μg/190 μg AA] | ED50 [6, 12] [µg/kg] | further results
1 | COc1ccc(-c2nc(C(C)C)[nH]c2-c2ccc(OC)cc2)cc1 [Compound 12, 2-Isopropyl-4,5-bis(4-methoxyphenyl)imidazole, reference compound] | 200 | – | – | – | Analgesic activity (in words) [2]: much weaker analgesic activity than the compounds of the present invention
2 | COc1ccc(-c2nc(-c3cc(F)cc(F)c3)[nH]c2-c2ccc(OC)cc2)cc1 [Compound 10, 2-(3,5-Difluorphenyl)-4,5-bis(4-methoxyphenyl)imidazole] | 10 | 0.38 | 0.12 | 9.7 | LD50 at 168 h [3]: > 2000 mg/kg
3 | COc1ccc2cc([C@H](C)C(=O)O)ccc2c1 [Compound 14, Naproxen, reference compound] | – | 0.49 | – | – | Ulcerogenic activity ED50 [7]: 19.5 mg/kg
4 | COc1ccc(-c2nc(-c3cccc(F)c3)[nH]c2-c2ccc(OC)cc2)cc1 [Compound 3, 2-(3-Fluorphenyl)-4,5-bis(4-methoxyphenyl)imidazole] | 3.2 | 0.21 | 0.12 | 3.6 | –
5 | COc1ccc(-c2nc(-c3cccc(F)c3F)[nH]c2-c2ccc(OC)cc2)cc1 [Compound 5, 2-(2,3-Difluorphenyl)-4,5-bis(4-methoxyphenyl)imidazole] | 4.6 | 0.21 | 0.024 | 8.7 | LD50 at 168 h [3]: 3120 mg/kg
6 | COc1ccc(-c2nc(-c3ccccc3F)[nH]c2-c2ccc(OC)cc2)cc1 [Compound 2, 2-(2-Fluorphenyl)-4,5-bis(4-methoxyphenyl)imidazole] | 15 | 0.23 | 0.024 | 10.6 | –
7 | COc1ccc(-c2nc(-c3ccc(F)cc3)[nH]c2-c2ccc(OC)cc2)cc1 [Compound 4, 2-(4-Fluorphenyl)-4,5-bis(4-methoxyphenyl)imidazole] | 5 | 0.18 | 0.048 | 4.7 | –
8 | COc1ccc(-c2nc(-c3cc(F)ccc3F)[nH]c2-c2ccc(OC)cc2)cc1 [Compound 7, 2-(2,5-Difluorphenyl)-4,5-bis(4-methoxyphenyl)imidazole] | 16 | 1.71 | 0.024 | 2.4 | –
9 | COc1ccc(-c2nc(-c3ccc(F)c(F)c3)[nH]c2-c2ccc(OC)cc2)cc1 [Compound 9, 2-(3,4-Difluorphenyl)-4,5-bis(4-methoxyphenyl)imidazole] | 1.9 | 0.11 | 0.006 | 11.5 | ED50 [8]: 0.062 mg/kg; TD50 at 5 h [9]: 45 mg/kg
10 | COc1ccc2c(c1)c(CC(=O)O)c(C)n2C(=O)c1ccc(Cl)cc1 [Compound 13, Indomethacin, reference compound] | – | 0.65 | 1.19 | – | ED50 [1]: 8 mg/kg; ED50 [8]: 0.36 mg/kg; ED50 [10]: 28 mg/kg; Ulcerogenic activity ED50 [7]: 9.7 mg/kg; ED50 ([6]; iv): 115 µg/kg
11 | COc1ccc(-c2nc(C(F)(F)F)[nH]c2-c2ccc(OC)cc2)cc1 [Compound 11, 2-Trifluormethyl-4,5-bis(4-methoxyphenyl)imidazole, reference compound] | 75 | – | 0.06 | – | Toxicity (in words) [3]: higher toxicity than the compounds of the present invention; Analgesic activity (in words) [2]: weaker analgesic activity
12 | COc1ccc(-c2nc(-c3c(F)cccc3F)[nH]c2-c2ccc(OC)cc2)cc1 [Compound 8, 2-(2,6-Difluorphenyl)-4,5-bis(4-methoxyphenyl)imidazole] | 6.8 | 0.13 | 0.012 | 4.9 | –
13 | CC(C)(C)NCC(O)c1ccc(O)c(CO)c1 (stereo not shown) [Compound 16, Salbutamol, reference compound] | – | – | – | 16 | –
14 | CC(=O)Oc1ccccc1C(=O)O [Compound 15, Acetyl salicylic acid, reference compound] | – | 7.61 | 2.38 | – | ED50 [1]: 100 mg/kg; ED50 [10]: 350 mg/kg; Ulcerogenic activity ED50 [7]: 340 mg/kg; ED50 ([6]; iv): 234 µg/kg
15 | COc1ccc(-c2nc(-c3ccc(F)cc3F)[nH]c2-c2ccc(OC)cc2)cc1 [Compound 6, 2-(2,4-Difluorphenyl)-4,5-bis(4-methoxyphenyl)imidazole] | 4 | 0.27 | 0.12 | 2.1 | TD50 at 5 h [9]: 1580 mg/kg
16 | COc1ccc(-c2nc(-c3ccc(F)cc3)n(CCC(=O)O)c2-c2ccc(OC)cc2)cc1 [Compound 1, 1-(2-Carboxyethyl)-2-(4-fluorphenyl)-4,5-bis(4-methoxyphenyl)imidazole, reference compound] | > 200 | – | – | – | –
